Test results as given in patent US20100130500A1, “METHODS AND COMPOSITIONS FOR THE TREATMENT OF PULMONARY HYPERTENSION OF THE NEWBORN” (BIOMARIN PHARMACEUTICAL INC., priority 2004, published 2010).
One block for each molecule: values may come before it.

Experiments:
[1] = Physical stability of crystal forms (temperature, humidity, phase equilibration); assay type: physicochemical
[2] = Hygroscopicity / water adsorption of crystal forms; assay type: physicochemical; conditions: dihydrochloride
[3] = tested on: infants with PPHN; conditions: cited from earlier work

Compound: C[C@H](O)[C@H](O)[C@H]1CNc2nc(N)[nH]c(=O)c2N1.Cl.Cl [hydrate form D, (6R)-L-erythro-tetrahydrobiopterin dihydrochloride]
relative humidity at which the form is stable ([1]; ambient temperatures, dihydrochloride): less than 70%

Compound: C[C@H](O)[C@H](O)[C@H]1CNc2nc(N)[nH]c(=O)c2N1.Cl.Cl [polymorph J, (6R)-L-erythro-tetrahydrobiopterin dihydrochloride]
relative humidity at which it is transformed back into form E [1]: above 75%

Compound: C[C@H](O)[C@H](O)[C@H]1CNc2nc(N)[nH]c(=O)c2N1.Cl.Cl [Polymorph K, (6R)-L-erythro-tetrahydrobiopterin dihydrochloride]
adsorbs water to a content of [2]: about 2.0 percent by weight

Compound: C[C@H](O)[C@H](O)[C@H]1CNc2nc(N)[nH]c(=O)c2N1.Cl.Cl [Polymorph B, (6R)-L-erythro-tetrahydrobiopterin dihydrochloride]
stability of the crystal form ([1]; dihydrochloride): highest thermodynamic stability above about 20 °C

Compound: c1ccc(CC2=NCCN2)cc1 [tolazoline]
response rate [3]: 60%

Compound: Nc1ncnc2c1ncn2[C@@H]1O[C@H](COP(=O)(O)OP(=O)(O)OP(=O)(O)O)[C@@H](O)[C@H]1O [adenosine triphosphate]
infants with a response [3]: 5 out of 6

Second part, the molecule after the results:

adsorbs water to a content of [2]: about 3 percent by weight
Compound: C[C@H](O)[C@H](O)[C@H]1CNc2nc(N)[nH]c(=O)c2N1.Cl.Cl [Polymorph F, (6R)-L-erythro-tetrahydrobiopterin dihydrochloride]

phase equilibration tests of suspensions ([1]; tetrahydrofuran or tertiary-butyl methyl ether, stirred five days and 18 hours respectively, nitrogen, room temperature, filtration and air-drying): unchanged polymorph form A
adsorbs water to a content of [2]: about 3 percent by weight
Compound: C[C@H](O)[C@H](O)[C@H]1CNc2nc(N)[nH]c(=O)c2N1.Cl.Cl [Polymorph A, (6R)-L-erythro-tetrahydrobiopterin dihydrochloride]
